Literature values in patent US20080207756A1, “Bio-absorbable oil suspension” (ATRIUM MEDICAL CORPORATION, priority 2007, published 2008).
Counter-ions that a name gives are not always drawn.

Conditions: liquid Bupivacaine HCL without epinephrine

half life: 2 to 3 h
SMILES: CCCCN1CCCCC1C(=O)Nc1c(C)cccc1C (stereo not shown) [Bupivacaine HCL]
